Test results taken from paper PMC1241434 (Environmental Health Perspectives, 2003).

Columns and labels:
estrogenic activity = details: 10^-5 M; ref Nishikawa et al. (2000); cited from earlier work
[1] = target: T1, human androgen receptor (hAR) (Homo sapiens, UniProt P10275); experiment: hAR reporter gene assay in CHO cells, agonist mode; details: for hAR-mediated transcriptional activity (androgenicity): 10^-5 M, absence of DHT
T1 sequence (P10275 1-920): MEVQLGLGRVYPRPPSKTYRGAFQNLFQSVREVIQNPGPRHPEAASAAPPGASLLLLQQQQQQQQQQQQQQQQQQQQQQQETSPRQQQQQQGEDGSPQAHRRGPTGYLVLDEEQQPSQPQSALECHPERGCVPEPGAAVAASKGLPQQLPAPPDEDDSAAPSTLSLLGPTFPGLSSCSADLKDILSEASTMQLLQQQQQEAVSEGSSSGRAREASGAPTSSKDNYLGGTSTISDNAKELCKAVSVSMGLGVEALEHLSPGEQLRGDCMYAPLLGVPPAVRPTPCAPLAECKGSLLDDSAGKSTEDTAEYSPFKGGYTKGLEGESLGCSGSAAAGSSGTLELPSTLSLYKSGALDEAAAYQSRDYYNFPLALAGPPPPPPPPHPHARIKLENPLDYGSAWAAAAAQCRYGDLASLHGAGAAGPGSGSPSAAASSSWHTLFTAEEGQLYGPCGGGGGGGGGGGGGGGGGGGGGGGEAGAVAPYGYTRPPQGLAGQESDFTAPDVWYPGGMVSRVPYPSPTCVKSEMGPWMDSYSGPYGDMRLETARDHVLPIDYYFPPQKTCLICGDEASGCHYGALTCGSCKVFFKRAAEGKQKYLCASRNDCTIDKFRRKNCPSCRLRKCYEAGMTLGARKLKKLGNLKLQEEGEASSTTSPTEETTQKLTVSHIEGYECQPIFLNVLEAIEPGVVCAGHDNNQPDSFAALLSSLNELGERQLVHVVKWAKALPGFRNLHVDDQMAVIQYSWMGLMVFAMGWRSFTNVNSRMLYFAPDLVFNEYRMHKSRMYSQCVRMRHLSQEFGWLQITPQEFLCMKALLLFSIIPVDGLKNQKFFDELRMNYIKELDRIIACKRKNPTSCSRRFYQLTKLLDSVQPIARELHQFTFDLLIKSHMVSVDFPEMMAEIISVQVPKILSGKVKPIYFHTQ

[2] = target: T2, human estrogen receptor-alpha (hER alpha) (Homo sapiens, UniProt P03372); experiment: hER alpha reporter gene assay in CHO cells, agonist mode; details: for hER-mediated transcriptional activity (estrogenic activity): 10^-5 M, absence of E2; for estrogenic activity of steroids: at the concentrations tested
T2 sequence (P03372 1-595): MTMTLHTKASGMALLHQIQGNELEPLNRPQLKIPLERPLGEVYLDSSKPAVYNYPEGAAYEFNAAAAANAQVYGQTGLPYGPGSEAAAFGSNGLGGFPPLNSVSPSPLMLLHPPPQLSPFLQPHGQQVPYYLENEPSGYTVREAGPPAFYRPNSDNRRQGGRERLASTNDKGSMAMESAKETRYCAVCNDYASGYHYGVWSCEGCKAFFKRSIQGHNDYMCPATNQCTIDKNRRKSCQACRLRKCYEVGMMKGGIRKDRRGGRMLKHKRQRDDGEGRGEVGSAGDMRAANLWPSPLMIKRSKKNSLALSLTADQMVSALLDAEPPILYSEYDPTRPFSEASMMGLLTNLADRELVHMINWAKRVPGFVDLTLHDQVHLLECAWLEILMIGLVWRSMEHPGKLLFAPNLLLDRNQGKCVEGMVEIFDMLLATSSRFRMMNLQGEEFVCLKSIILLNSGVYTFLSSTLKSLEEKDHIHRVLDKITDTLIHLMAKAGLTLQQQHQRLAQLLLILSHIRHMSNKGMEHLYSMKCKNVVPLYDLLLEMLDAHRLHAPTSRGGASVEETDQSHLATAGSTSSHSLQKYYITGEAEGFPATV

[3] = target: T1, human androgen receptor (hAR); experiment: hAR reporter gene assay in CHO cells, antagonist mode; details: for inhibition of hAR-mediated transcriptional activity by DHT: 10^-5 M, presence of 10^-10 M DHT
CHO-K1 cells = experiment: Renilla luciferase activity as toxicity control in transfected CHO cells; details: conditions of the hAR antagonist assay, data not shown
[4] = target: T2, human estrogen receptor-alpha (hER alpha); experiment: hER alpha reporter gene assay in CHO cells, antagonist mode; details: 10^-5 M, presence of 10-11 M E2, versus vehicle
human AR = target: T3, human AR (Homo sapiens, UniProt P10275); experiment: Competitive binding assay for AR; details: ratio of IC50 of mibolerone to that of test compound, mibolerone set at 100
T3 sequence (P10275 1-920): T1 sequence (P10275 1-920)

human ER = target: T4, human ER (Homo sapiens, UniProt P03372); experiment: Competitive binding assay for ER; details: for RBA-E (relative binding affinity for hER): ratio of IC50 of DES to that of test compound, DES set at 100
T4 sequence (P03372 1-595): T2 sequence (P03372 1-595)

## O=[N+]([O-])c1ccc(Oc2c(Cl)cc(Cl)cc2Cl)cc1 [CNP, 2,4,6-trichlorophenyl-4-nitrophenyl ether]
Estrogenic activity
  estrogenic activity in yeast two-hybrid assay: negative
[1]
  hAR-mediated transcriptional activity (androgenicity): weakly androgenic
[2]
  hER-mediated transcriptional activity (estrogenic activity): potent estrogenic activity
[3]
  inhibition of hAR-mediated transcriptional activity by DHT: inhibited
[3]; IC50 ratio versus o,p-DDT
  antiandrogenic potency, fold higher than o,p-DDT: ~10 fold
[3]; IC50 ratio versus p,p-DDE
  antiandrogenic potency, fold higher than p,p-DDE: ~14 fold
[3]; IC50 ratio versus vinclozolin
  antiandrogenic potency, fold higher than vinclozolin: approximately 3.5 fold
CHO-K1 cells
  effect on cellular viability (Renilla luciferase activity): did not affect the cellular viability
[4]
  effect on estrogenic activity of E2 (antiestrogenic activity): did not show any significant differences
Human AR
  RBA-A (relative binding affinity for hAR): 8.64
Human ER
  effect on the binding of E2 to hER: very low
  RBA-E (relative binding affinity for hER): < 0.0009

## Nc1ccc(Oc2c(Cl)cc(Cl)cc2Cl)cc1 [CNP-amino, 2,4,6-trichlorophenyl-4-aminophenyl ether]
[1]
  hAR-mediated transcriptional activity (androgenicity): no androgenicity
[2]
  hER-mediated transcriptional activity (estrogenic activity): potent estrogenic activity
[2]; versus p,p-DDT
  estrogenic activity, fold higher than p,p-DDT: about 4 fold
[3]
  inhibition of hAR-mediated transcriptional activity by DHT: inhibited
[3]; ratio to CNP
  antiandrogen intensity relative to CNP: more than 1/10
CHO-K1 cells
  effect on cellular viability (Renilla luciferase activity): did not affect the cellular viability
[4]
  effect on estrogenic activity of E2 (antiestrogenic activity): did not show any significant differences
Human AR
  RBA-A (relative binding affinity for hAR): 0.33
Human ER
  RBA-E (relative binding affinity for hER): 0.036

## C[C@]12CC[C@@H]3c4ccc(O)cc4CC[C@H]3[C@@H]1CCC2=O [estrone, reference compound]
[1]; at the concentrations tested
  androgenic activity of steroids: only low activity

## Clc1ccc(C(c2ccccc2Cl)C(Cl)(Cl)Cl)cc1 (centres unmarked) [o,p-DDT, 1,1,1-trichloro-2-(p-chlorophenyl)-2-(o-chlorophenyl)ethane, reference compound]
[2]
  hER-mediated transcriptional activity (estrogenic activity): potent estrogenic activity
[4]
  effect on estrogenic activity of E2 (antiestrogenic activity): did not show any significant differences

## CC(=O)[C@H]1CC[C@H]2[C@@H]3CCC4=CC(=O)CC[C@]4(C)[C@H]3CC[C@]12C [progesterone, reference compound]
[2]
  estrogenic activity of steroids: inactive

## C[C@]12CC[C@H]3[C@@H](CCC4=CC(=O)CC[C@@]43C)[C@@H]1CC[C@@H]2O [testosterone, reference compound]
[2]
  estrogenic activity of steroids: positive by this assay at high concentrations
